Laboratory results published in the supplement of paper PMC5579334.

How the values were obtained:
[1] = tested on: HSC2; test: relative IC50 (inflection point of fitted dose-response curve, CellTox-Green cytotoxicity, 72 h; top asymptote may be below 50%); higher = less potent
Method in brief: (§1)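 MPNST cell lines and primary human Schwann cells were incubated 72 h at 37 °C in 384-well plates holding five 10-fold compound dilutions. CellTox-Green was added before seeding at a final 1:1000 dilution and reported fluorescence from DNA released by disrupted cells. Signals were scaled to vehicle and positive-control wells, and cultures failing plate quality control were dropped. Drug sensitivity score and relative IC50 come from four-parameter logistic fits, with IC50 censored at the top concentration.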

[2] = tested on: ST8814; test: as above
Method in brief: as §1

[3] = tested on: S1507-2; test: as above
Method in brief: as §1

[4] = tested on: HSC1; test: as above
Method in brief: as §1

[5] = tested on: STS26T; test: as above
Method in brief: as §1

[6] = tested on: HS-PSS; test: as above
Method in brief: as §1

[7] = tested on: HSC2; test: relative IC50 (inflection point of fitted dose-response curve, CellTiter-Glo viability, 72 h; top asymptote may be below 50% inhibition); higher = less potent
Method in brief: (§2)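 MPNST cell lines and primary human Schwann cells (750–1000 cells per well) went into 384-well plates preprinted with each compound at five concentrations in 10-fold steps. Plates were incubated 72 h at 37 °C, 5% CO2. Viability was read as CellTiter-Glo ATP luminescence, scaled between vehicle and positive-control wells, with duplicates averaged where present. Percent inhibition is at the top concentration; drug sensitivity score and relative IC50 (censored at top concentration) come from four-parameter logistic fits.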

[8] = tested on: ST8814; test: as above
Method in brief: as §2

[9] = tested on: S462; test: as above
Method in brief: as §2

[10] = tested on: HS-Sch-2; test: as above
Method in brief: as §2

[11] = tested on: S1507-2; test: as above
Method in brief: as §2

[12] = tested on: HSC1; test: as above
Method in brief: as §2

[13] = tested on: STS26T; test: as above
Method in brief: as §2

[14] = tested on: HS-PSS; test: as above
Method in brief: as §2

[15] = tested on: YST-1; test: as above
Method in brief: as §2

| SMILES | relative IC50 [1] [nM] | relative IC50 [2] [nM] | relative IC50 [3] [nM] | relative IC50 [4] [nM] | relative IC50 [5] [nM] | relative IC50 [6] [nM] | relative IC50 [7] [nM] | relative IC50 [8] [nM] | relative IC50 [9] [nM] | relative IC50 [10] [nM] | relative IC50 [11] [nM] | relative IC50 [12] [nM] | relative IC50 [13] [nM] | relative IC50 [14] [nM] | relative IC50 [15] [nM] |
| --- | --- | --- | --- | --- | --- | --- | --- | --- | --- | --- | --- | --- | --- | --- | --- |
| Nc1ncnc2c1nc(N)n2[C@@H]1O[C@H](CO)[C@@H](O)[C@H]1O [8-amino-adenosine] | 7010 | 1730 | 2820 | 6650 | 1060 | 4130 | 2250 | 1110 | 1080 | 1230 | 885 | 1360 | 1100 | 1620 | 647 |
| COc1ccc(S(=O)(=O)Nc2cccnc2Nc2ccc(O)cc2)cc1 [ABT-751] | 304 | 536 | 355 | 831 | 246 | > 10000 | 476 | 353 | 351 | 437 | 325 | 468 | 367 | 3010 | 814 |
| O=C(Nc1c[nH]nc1-c1nc2ccc(CN3CCOCC3)cc2[nH]1)NC1CC1 [AT9283] | 276 | 31.9 | 167 | 231 | 145 | > 1000 | 79.6 | 60.2 | 122 | 332 | 94.6 | 83.1 | 172 | 178 | 139 |
| CNC(=O)c1cccc(-c2ccc3c(N4CCOC[C@@H]4C)nc(N4CCOC[C@@H]4C)nc3n2)c1 [AZD2014] | > 10000 | > 10000 | > 10000 | > 10000 | > 10000 | > 10000 | 322 | 654 | 364 | 366 | 335 | 306 | 401 | 505 | 119 |
| Oc1ncnc2[nH]ncc12 [Allopurinol] | > 10000 | > 10000 | > 10000 | > 10000 | > 10000 | > 10000 | > 10000 | > 10000 | > 10000 | > 10000 | > 10000 | > 10000 | > 10000 | > 10000 | > 10000 |
| CO[C@H]1/C=C\C=C(/C)C(=O)NC2=CC(=O)C(NCCN(C)C)=C(C[C@@H](C)C[C@H](OC)[C@H](O)[C@@H](C)/C=C(\C)[C@@H]1OC(N)=O)C2=O [Alvespimycin] | 187 | 106 | 106 | 198 | 95.7 | 49 | 134 | 54.9 | 48.1 | 47.3 | 78.4 | 132 | 72 | 45.5 | 24.4 |
| CCC1(c2ccc(N)cc2)CCC(=O)NC1=O (stereo not given) [Aminoglutethimide] | > 10000 | > 10000 | > 10000 | > 10000 | > 10000 | > 10000 | > 10000 | > 10000 | > 10000 | > 10000 | > 10000 | > 10000 | > 10000 | > 10000 | > 10000 |
| CC(C)(C#N)c1cc(Cn2cncn2)cc(C(C)(C)C#N)c1 [Anastrozole] | > 10000 | > 10000 | > 10000 | > 10000 | > 10000 | > 10000 | > 10000 | > 10000 | > 10000 | > 10000 | > 10000 | > 10000 | > 10000 | > 10000 | > 10000 |
| COc1c(C)cnc(Cn2cnc3c(Cl)nc(N)nc32)c1C [BIIB021] | 231 | 587 | 484 | 217 | 316 | 396 | 297 | 280 | 186 | 95.1 | 268 | 395 | 247 | 424 | 328 |
| O=C(/C=C/c1cccc(S(=O)(=O)Nc2ccccc2)c1)NO [Belinostat] | 1700 | 800 | 1190 | 1770 | 415 | 1490 | 704 | 321 | 762 | 610 | 364 | 459 | 718 | 924 | 259 |
| CC(C)C[C@H](NC(=O)[C@H](Cc1ccccc1)NC(=O)c1cnccn1)B(O)O [Bortezomib] | 21.4 | 9.88 | 8.94 | 22.6 | 11.2 | 123 | 6.64 | 6.3 | 5.87 | 3.47 | 10.1 | 7.32 | 11 | 51.1 | 10.1 |
| COc1cc(Nc2c(C#N)cnc3cc(OCCCN4CCN(C)CC4)c(OC)cc23)c(Cl)cc1Cl [Bosutinib] | 3250 | 2410 | 3200 | 3330 | 2950 | 3310 | 1140 | 1460 | 1490 | 1600 | 1410 | 1700 | 1270 | 3430 | 2590 |
| Cc1cc2c(F)c(Oc3ncnn4cc(OC[C@@H](C)O)c(C)c34)ccc2[nH]1 [Brivanib] | > 1000 | > 1000 | > 1000 | > 1000 | > 1000 | > 1000 | > 1000 | > 1000 | > 1000 | > 1000 | > 1000 | > 1000 | > 1000 | > 1000 | > 1000 |
